Reference: patent US20240360148A1 (SUVALENT THERAPEUTICS, INC., priority 2021, published 2024)

Key:
SAE1 = SAE1 (Homo sapiens (Human), UniProt Q9UBE0+Q9UBT2); assay: SAE High Throughput Biochemical Assay (HTRF), 15 min preincubation; settings: read-out: 15 min preincubation HTRF IC50 (μM) Ave, SAE1 12.5 nM, ATP 100 μM
Method in brief: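 SAE1 (12.5 nM) was preincubated with compound for 15 min at RT in HEPES pH 7.5, 0.1% BSA, 10 mM MgCl2. The reaction was then started with SUMO-GST and UBC9-His (40 nM each) plus 100 μM ATP for 45 min. After KF stop, HTRF (anti-GST-XL665/anti-His-EuK) was read at 2 h and overnight; some compounds were tested singly at 25 micromolar as percent of control.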

[1] = tested on: sumoylation levels (SUMO 2/3 conjugates) in HCT-116 cells; assay: HCT-116 4 Hour Cell Assay (Western, SUMO 2/3 conjugates); type: cell-based; settings: Homo sapiens, HCT-116, 4 h, 4 h treatment, Anti-Sumo 2-3 immunoblot, read-out: HCT-116 Western 4 h IC50 (μM) Ave
Experimental: This protocol describes the procedures used to assess the effects of compounds of interest on sumoylation levels. Immunoblot of SUMO 2/3 conjugates are performed and IC50 curves are generated upon quantification of sumoylations bands. HCT-116 cells are seeded in a 12 well plate (500,000 cells/well). The following day the cells are treated with compounds of interest (resuspended in DMSO) for 4 hours (11 concentrations with a three-fold dilution; starting concentration 25 μM) Following 4 hours of incubation the cells are washed with ice cold PBS 1×and protein extraction is performed with RIPA buffer supplemented with phosphatases and proteases inhibitors, 25 mM of NEM and 50 units/mL of Benzonase. Samples undergo centrifugation at 13,000 RPM, 4° C., for 10 minutes and the supernatant is collected. Protein quantification is performed using BCA. Non-Reducing Laemmli Buffer is added to the samples. Samples are heated at 75° C. for 10 minutes, and are centrifuged for 3 minutes at 9000 RPM Nupage 4-12% Bis Tris gels and 1× MOPS buffer (Fisher Scientific)+1× NuPAGE Antioxidant (Invitrogen) are used to perform the SDS-PAGE gel electrophoresis (20 to 40 μg of proteins are loaded in the gels). Proteins are then transferred to PVDF membranes and the level of total proteins are measured by staining with Revert Total Protein Stain and the fluorescent bands are acquired using the LI-COR FC (700 nm for 1 min) Membranes are blocked for 5 minutes with Bio-Rad Blocking Buffer and are subsequently incubated over night at 4° C. with Anti-Sumo 2-3 mAb (M BL #M114-3, 1:1000 in Bio-Rad Blocking Buffer, 0.2% Tween 20) Membranes are washed with 1×TBS-T (3 times for 5 minutes) and sumoylation is detected using Li-cor IRDye 800CW Goat anti-Mouse IgG secondary antibody (1:10,000 dilution) upon 1 hour of incubation in blocking buffer with 0.2% Tween 20 and 0.01% SDS. After the incubation, the membranes are washed with 1×TBS-T (3 times for 5 minutes). To visualize the fluorescent bands the membranes are scanned with LI-COR FC (700 nm for 1 min and […] for 2 mins). Sumoylation levels are quantified upon normalization with total protein levels, using the LI-COR Image Studio Lite 5.2 Software.

SAE1, sequence (Q9UBE0 whole entry): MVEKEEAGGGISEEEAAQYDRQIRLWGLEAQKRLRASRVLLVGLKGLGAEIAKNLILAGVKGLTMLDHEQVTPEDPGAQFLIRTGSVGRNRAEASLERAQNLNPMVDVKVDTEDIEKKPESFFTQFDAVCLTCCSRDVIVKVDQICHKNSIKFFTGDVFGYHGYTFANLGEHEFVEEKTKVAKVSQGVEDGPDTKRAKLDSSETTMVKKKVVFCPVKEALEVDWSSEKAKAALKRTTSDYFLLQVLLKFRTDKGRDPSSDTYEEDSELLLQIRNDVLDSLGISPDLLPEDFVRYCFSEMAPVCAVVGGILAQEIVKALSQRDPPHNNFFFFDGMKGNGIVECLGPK
SAE1, sequence (Q9UBT2 whole entry): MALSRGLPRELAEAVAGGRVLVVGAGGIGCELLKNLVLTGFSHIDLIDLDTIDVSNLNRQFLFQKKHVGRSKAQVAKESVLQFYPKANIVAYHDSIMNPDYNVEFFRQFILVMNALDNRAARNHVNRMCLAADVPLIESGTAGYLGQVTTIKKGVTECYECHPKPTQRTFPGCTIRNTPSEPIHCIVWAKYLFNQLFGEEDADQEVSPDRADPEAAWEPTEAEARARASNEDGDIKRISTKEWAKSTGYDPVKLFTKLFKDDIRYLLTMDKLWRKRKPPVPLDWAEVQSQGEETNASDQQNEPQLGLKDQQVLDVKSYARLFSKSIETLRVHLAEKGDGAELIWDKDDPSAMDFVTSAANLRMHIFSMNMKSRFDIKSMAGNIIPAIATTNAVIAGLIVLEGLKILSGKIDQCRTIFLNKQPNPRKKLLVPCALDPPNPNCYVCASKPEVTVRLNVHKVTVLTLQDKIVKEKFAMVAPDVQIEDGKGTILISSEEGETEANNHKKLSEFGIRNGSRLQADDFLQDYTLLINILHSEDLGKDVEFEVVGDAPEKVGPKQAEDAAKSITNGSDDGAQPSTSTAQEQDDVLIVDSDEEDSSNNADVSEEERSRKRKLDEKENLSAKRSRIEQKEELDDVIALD

Compound | IC50 [1] [µM] | IC50 (SAE1) [µM]
CCn1cc(-c2ccccc2[C@@H]2CN(C(=O)/C=C/CN3CCCC3)Cc3sc(C#N)cc32)c(C(F)(F)F)n1 [Example 30, (S, E)-4-(2-(1-ethyl-3-(trifluoromethyl)-1 H-pyrazol-4-yl)phenyl)-6-(4-(pyrrolidin-1-yl)but-2-enoyl)-4,5,6,7-tetrahydrothieno[2,3-c]pyridine-2-carbonitrile] | 0.746 | 3.3
CCN(CC)C/C=C/C(=O)N1Cc2sc(C#N)cc2[C@H](c2ccccc2-c2cn(CC)nc2C(F)(F)F)C1 [Example 28, (S, E)-6-(4-(Diethylamino)but-2-enoyl)-4-(2-(1-ethyl-3-(trifluoromethyl)-1 H-pyrazol-4-yl)phenyl)-4,5,6,7-tetrahydrothieno[2,3-c]pyridine-2-carbonitrile] | 0.331 | 8.43
C=CC(=O)N1Cc2sc(C#N)c(C)c2C(c2ccccc2-c2cn(CC)nc2C(F)(F)F)C1 (stereo not drawn) [Compound 231] | 1 | 0.16
CN(C)C/C=C/C(=O)N1Cc2sc(C#N)cc2[C@H](c2ccccc2-c2cn(CCF)nc2C(F)(F)F)C1 [Example 17, (S,E)-6-(4-(dimethylamino)but-2-enoyl)-4-(2-(1-(2-fluoroethyl)-3-(trifluoromethyl)-1 H-pyrazol-4-yl)phenyl)-4,5,6,7-tetrahydrothieno[2,3-c]pyridine-2-carbonitrile] | 0.269 | 2.47
CN(C)C/C=C/C(=O)N1Cc2sc(C#N)cc2[C@H](c2ccccc2-c2cn(C)nc2C(F)(F)F)C1 [Example 3, (S, E)-6-(4-(Dimethylamino)but-2-enoyl)-4-(2-(1-methyl-3-(trifluoromethyl)-1 H-pyrazol-4-yl)phenyl)-4,5,6,7-tetrahydrothieno[2,3-c]pyridine-2-carbonitrile] | 0.985 | 7.87
CCn1cc(-c2ccccc2[C@@H]2CN(C(=O)/C=C/CN3CCC(C(=O)O)C3)Cc3sc(C#N)cc32)c(C(F)(F)F)n1 (stereo partly drawn) [Example 5, 1-((E)-4-((S)-2-Cyano-4-(2-(1-ethyl-3-(trifluoromethyl)-1 H-pyrazol-4-yl)phenyl)-4,7-dihydrothieno[2,3-c]pyridin-6(5H)-yl)-4-oxobut-2-en-1-yl)pyrrolidine-3-carboxylic acid] | 14.1 | 10.3
CCn1cc(-c2ccccc2[C@@H]2CN(C(=O)/C=C/CNC3(C)CCOCC3)Cc3sc(C#N)cc32)c(C(F)(F)F)n1 [Example 96, (S,E)-4-(2-(1-Ethyl-3-(trifluoromethyl)-1H-pyrazol-4-yl)phenyl)-6-(4-((4-methyltetrahydro-2H pyran-4-yl)amino)but-2-enoyl)-4,5,6,7-tetrahydrothieno[2,3-c]pyridine-2-carbonitrile] | 2.79 | 2.92
CCn1cc(-c2c([C@@H]3CN(C(=O)/C=C/CN(C)C)Cc4sc(C#N)cc43)ccc(O)c2F)c(C(F)(F)F)n1 [Compound 240] | 0.187 | 0.81
CCn1cc(-c2ccccc2[C@@H]2CN(C(=O)/C=C/CF)Cc3sc(C#N)cc32)c(C(F)(F)F)n1 [Example 20, (S, E)-4-(2-(1-ethyl-3-(trifluoromethyl)-1 H-pyrazol-4-yl)phenyl)-6-(4-fluorobut-2-enoyl)-4,5,6,7-tetrahydrothieno[2,3-c]pyridine-2-carbonitrile] | 0.692 | 0.69

Continued, in another order:

IC50 [1] [µM] | Compound | IC50 (SAE1) [µM]
1.26 | CCn1cc(-c2c(C3CN(C(=O)/C=C/CN(C)C)Cc4sc(C#N)cc43)csc2C)c(C(F)(F)F)n1 (stereo not drawn) [Example 199, (E)-6-(4-(Dimethylamino)but-2-enoyl)-4-(4-(1-ethyl-3-(trifluoromethyl)-1 H-pyrazol-4-yl)-5-methylthiophen-3-yl)-4,5,6,7-tetrahydrothieno[2,3-c]pyridine-2-carbonitrile] | 2.87
0.202 | CCn1cc(-c2ccccc2[C@@H]2CN(C(=O)/C=C/[C@@H]3CC4(CC4)CN3)Cc3sc(C#N)cc32)c(C(F)(F)F)n1 [Example 116, (S)-6-((E)-3-((S)—S-Azaspiro(2.4]heptan-6-yl)acryloyl)-4-(2-(1-ethyl-3-(trifluoromethyl)-1H pyrazol-4-yl)phenyl)-4,5,6,7-tetrahydrothieno[2,3-c]pyridine-2-carbonitrile] | 1.49
1.15 | CCn1cc(-c2ccc(F)cc2C2CN(C(=O)/C=C/CN(C)C)Cc3sc(C#N)cc32)c(C(F)(F)F)n1 (stereo not drawn) [Example 180, (E)-6-(4-(Dimethylamino)but-2-enoyl)-4-(2-(1-ethyl-3-(trifluoromethyl)-1 H-pyrazol-4-yl)-5-fluorophenyl)-4,5,6,7-tetrahydrothieno[2,3-c]pyridine-2-carbonitrile] | 5.29
0.128 | CN(C)C/C=C/C(=O)N1Cc2sc(C#N)cc2[C@H](c2ccccc2-c2cn(-c3c(F)cncc3F)nc2C(F)(F)F)C1 [Example 159, (S,E)-4-(2-(1-(3,5-Difluoropyridin-4-yl)-3-(trifluoromethyl)-1H pyrazol-4-yl)phenyl)-6-(4-(dimethylamino)but-2-enoyl)-4,5,6,7-tetrahydrothieno[2,3-c]pyridine-2-carbonitrile] | 4.52
0.321 | C#CCn1cc(-c2ccccc2[C@@H]2CN(C(=O)/C=C/CN(C)C)Cc3sc(C#N)cc32)c(C(F)(F)F)n1 [Example 155, (S, E)-6-(4-(Dimethylamino)but-2-enoyl)-4-(2-(1-(prop-2-yn-1-yl)-3-(trifluoromethyl)-1 H-pyrazol-4-yl)phenyl)-4,5,6,7-tetrahydrothieno[2,3-c]pyridine-2-carbonitrile] | 3.52
0.587 | CN(C)CC#CC(=O)N1Cc2sc(C#N)cc2[C@H](c2ccccc2-c2c[nH]nc2C(F)(F)F)C1 [Example 151, (S)-6-(4-(Dimethylamino)but-2-ynoyl)-4-(2-(3-(trifluoromethyl)-1 H-pyrazol-4-yl)phenyl)-4,5,6,7-tetrahydrothieno[2,3-c]pyridine-2-carbonitrile] | 0.18
0.249 | CNC/C=C/C(=O)N1Cc2sc(C#N)cc2[C@H](c2cccc(F)c2-c2cn(C)nc2C(F)(F)F)C1 [Example 129, (S,E)-4-(3-Fluoro-2-(1-methyl-3-(trifluoromethyl)-1 H pyrazol-4-yl)phenyl)-6-(4-(methylamino)but-2-enoyl)-4,5,6,7-tetrahydrothieno[2,3-c]pyridine-2-carbonitrile] | 0.505
0.121 | CCn1cc(-c2c(F)cccc2[C@@H]2CN(C(=O)/C=C/[C@@H]3C[C@H](OC)CN3)Cc3sc(C#N)cc32)c(C(F)(F)F)n1 [Example 119, (S)-4-(2-(1-Ethyl-3-(trifluoromethyl)-1H pyrazol-4-yl)-3-fluorophenyl)-6-((E)-3-((2S,4S)-4-methoxypyrrolidin-2-yl)acryloyl)-4,5,6,7-tetrahydrothieno[2,3-c]pyridine-2-carbonitrile] | 0.44
0.97 | CCn1cc(-c2ccccc2[C@@H]2CN(C(=O)C#CC3CCCN3)Cc3sc(C#N)cc32)c(C(F)(F)F)n1 (stereo partly drawn) [Example 139, (4S)-4-(2-(1-Ethyl-3-(trifluoromethyl)-1 H pyrazol-4-yl)phenyl)-6-(3-(pyrrolidin-2-yl)propioloyl)-4,5,6,7-tetrahydrothieno[2,3-c]pyridine-2-carbonitrile] | 0.07
